Columns and labels:
sigma 1 receptor (σ1R) [1] = biological target: T1, sigma 1 receptor (σ1R) (Mus musculus, UniProt O55242); assay: biochemical; parameters: gene Sigmar1
sigma 1 receptor (σ1R) [2] = biological target: T1, sigma 1 receptor (σ1R); assay: in vitro pull-down: reversal of progesterone/CBD-induced disruption of recombinant σ1R-NR1 complex; type: biochemical; parameters: gene Sigmar1; murine full-length (1–223) σ1R, recombinant from E. coli, GST-free; with NMDAR NR1 subunit C-terminal region (residues 827–938)
sigma 1 receptor (σ1R) [3] = biological target: T1, sigma 1 receptor (σ1R); assay: in vitro pull-down: disruption of recombinant σ1R-NR1 complex, immunoblot; type: binding; parameters: gene Sigmar1; murine full-length (1–223) σ1R, recombinant from E. coli, GST-free; with NMDAR NR1 subunit C-terminal region (residues 827–938)

T1 sequence (O55242 whole entry, the tested form may be a part): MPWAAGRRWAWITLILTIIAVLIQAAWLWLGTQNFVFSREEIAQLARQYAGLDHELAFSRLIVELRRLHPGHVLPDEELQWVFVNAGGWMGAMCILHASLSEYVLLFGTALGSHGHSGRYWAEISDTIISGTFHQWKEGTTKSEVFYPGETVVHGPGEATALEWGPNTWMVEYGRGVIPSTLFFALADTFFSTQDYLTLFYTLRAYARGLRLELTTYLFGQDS
T1 sequence (P35438 827-938 partner): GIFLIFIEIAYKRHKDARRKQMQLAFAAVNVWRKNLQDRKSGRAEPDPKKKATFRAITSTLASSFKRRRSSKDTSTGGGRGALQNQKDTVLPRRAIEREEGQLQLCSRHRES

SMILES | in vitro pull-down: reversal of progesterone/CBD-induced disruption of recombina (sigma 1 receptor (σ1R) [2]) | EC50 (sigma 1 receptor (σ1R) [3]) [nM] | other results
COC(=O)[C@]1(c2ccc(C)cc2)C[C@@H]1CN1CCC(O)(c2ccccc2)CC1 (racemic) [PPCC] |  |  | Ki (sigma 1 receptor (σ1R) [1]): 0.06 nM
O=C(NC1CCN(Cc2ccccc2)CC1)c1ccc(I)cc1 [4-IBP] | PPCC, PRE084 and 4-IBP did not alter σ1R-NR1 associations but reduced the capacity of progesterone and CBD |  | 
CN1CCN(CCc2ccc(Cl)c(Cl)c2)CC1 [BD1063] |  | ~0.03 | 
C=C(C)[C@@H]1CCC(C)=C[C@H]1c1c(O)cc(CCCCC)cc1O [CBD, Cannabidiol] |  | ~0.1 | 
O=C(OCCN1CCOCC1)C1(c2ccccc2)CCCCC1 [PRE084] | PPCC, PRE084 and 4-IBP did not alter σ1R-NR1 associations but reduced the capacity of progesterone and CBD |  | 
CC(=O)[C@H]1CC[C@H]2[C@@H]3CCC4=CC(=O)CC[C@]4(C)[C@H]3CC[C@]12C [Progesterone] |  | ~0.03 | 

Reference: PMC6142691, “Cannabidiol enhances morphine antinociception, diminishes NMDA-mediated seizures and reduces stroke damage via the sigma 1 receptor” (Molecular Brain, 2018)
